Results reported in ChEMBL document CHEMBL3784978, “Stabilization of G-quadruplex DNA and inhibition of Bcl-2 expression by a pyridostatin analog” (Bioorg Med Chem Lett, 2016).
Activity calls are given as the source filed them. No cut-off for these calls is given here.

What was measured:
[1] = Binding affinity to Bcl2 G-quadraplex DNA (unknown origin) assessed as binding constant at 8 uM by Stern-Volmer plot analysis in the presence of KCl and NaCl
[2] = Binding affinity to duplex ds20 DNA (unknown origin) assessed as binding constant at 8 uM by Stern-Volmer plot analysis in the presence of KCl and NaCl
[3] = Binding affinity to duplex ds26 DNA (unknown origin) assessed as binding constant at 8 uM by Stern-Volmer plot analysis in the presence of KCl and NaCl
[4] = Ratio of binding affinity to Bcl2 G-quadruplex DNA (unknown origin) to binding affinity to duplex ds26 DNA (unknown origin)
[5] = Ratio of binding affinity to Bcl2 G-quadruplex DNA (unknown origin) to binding affinity to duplex ds20 DNA (unknown origin)
[6] = Binding affinity to Bcl2 G-quadraplex DNA (unknown origin) assessed as melting temprature at 2 uM by circular dichroism spectroscopic analysis in the presence of KCl and NaCl
[7] = Binding affinity to Bcl2 G-quadraplex DNA (unknown origin) assessed as melting temprature at 5 uM by circular dichroism spectroscopic analysis in the presence of KCl and NaCl
Homo sapiens = organism: Homo sapiens; test: Binding affinity to duplex ds26 DNA (unknown origin) assessed as melting temprature at 12 uM by circular dichroism spectroscopic analysis in the presence of KCl and NaCl
HEp-2 [8] = test: Binding affinity to Bcl2 G-quadraplex DNA in human Hep2 cells assessed as reduction in Bcl-2 expression co-transfected in pRL-TK plasmid vector after 48 hrs by dual-luciferase reporter assay; type: cell-based
HEp-2 [9] = test: Binding affinity to Bcl2 G-quadraplex DNA in human Hep2 cells assessed as reduction in Bcl-2 gene levels by real-time PCR method; type: cell-based
HEp-2 [10] = test: Antiproliferative activity against human Hep2 cells measured up to 10 uM after 48 hrs by MTT assay; type: functional, cell-based

| Ka [1] [×10⁵ L/mol] | Ka [2] [×10⁵ L/mol] | Ka [3] [×10⁵ L/mol] | Ratio [4] | Ratio [5] | Tm [6] [°C] | Tm [7] [°C] | Tm (Homo sapiens) [°C] | SMILES | Activity (HEp-2 [8]) | Activity (HEp-2 [9]) | Activity (HEp-2 [10]) |
| --- | --- | --- | --- | --- | --- | --- | --- | --- | --- | --- | --- |
| 6.97 | 1.36 | 1.52 | 4 | 4 | – | – | – | NCCOc1cc(C(=O)Nc2cc(OCCN)c3ccccc3n2)nc(C(=O)Nc2cc(OCCN)c3ccccc3n2)c1 | – | – | – |
| 4.29 | 0.28 | 0.66 | 6.5 | 6.5 | 56 | 71 | 68 | CN(C)CCOc1cc(NC(=O)c2cc(OCCN)cc(C(=O)Nc3cc(OCCN(C)C)c4ccccc4n3)n2)nc2ccccc12 | Dose-dependent effect | Active | Active |
